Earlier results on two compounds are cited in patent US20040191328A1, “Combination of gallium compounds with nonchemotherapeutic anticancer agents in the treatment of neoplasia” (priority 2002, published 2004).

The conditions of data set [1]: increased exposure secondary to decreased clearance.

Where only a bound is given, the exact number is not on record here.

For the compound `O=[N+]([O-])[O-].O=[N+]([O-])[O-].O=[N+]([O-])[O-].[Ga+3]` [Gallium nitrate, gallium nitrate], the “concentration at which growth inhibition occurs” value in the data set on cells in vitro (chronic exposure, low concentrations) is 10 µg/mL. The “concentration inducing both cellular cytotoxicity and inhibition of growth” value in the data set with cells in vitro (exposure of duration longer than 24 hours) is greater than 50 µg/mL.

For `C/C=C/C[C@@H](C)C(=O)[C@H]1C(=O)N[C@@H](C(C)C)C(=O)N(C)CC(=O)N(C)[C@@H](CC(C)C)C(=O)N[C@@H](C(C)C)C(=O)N(C)[C@@H](CC(C)C)C(=O)N[C@@H](C)C(=O)N[C@H](C)C(=O)N(C)[C@@H](CC(C)C)C(=O)N(C)[C@@H](CC(C)C)C(=O)N(C)[C@@H](C(C)C)C(=O)N1C` [PSC 833], in data set [1], the “dose reduction of paclitaxel and doxorubicin needed to achieve equivalent myelosuppression” value is listed as 2 fold.
